These results are taken from EP0215357B1, “Pharmaceutical preparation for the treatment of hypertension” (HOECHST AKTIENGESELLSCHAFT, priority 1985, dated 1987).

Molecules are shown by their SMILES.

For the test, the system named is spontan hypertensive Ratten (Wistar-Kyoto). The experiment in a line: Urine excretion over 5 hours in spontaneously hypertensive rats (metabolic cages). The format is in vivo, Ratte. As to conditions: mean ± spread. As to the method: 10 spontan hypertensive Ratten (Wistar-Kyoto) wurden instrumentiert und während der Versuche in Stoffwechselkäfigen gehalten. Ramipril (=A) (1 mg/kg) und Piretanid (=B) (1,2 und 16 mg/kg) werden in Tylose oral mit Magensonde verabreicht. Die Kontrollgruppe erhielt nur Tylose. Die ausgeschiedene Urinmenge nach 5 Stunden, die Natriumausscheidung nach 5 Stunden sowie der arterielle Mitteldruck wurden bestimmt. Tabelle 1

`CCOC(=O)[C@H](CCc1ccccc1)N[C@@H](C)C(=O)N1[C@H](C(=O)O)C[C@@H]2CCC[C@@H]21` [A, Ramipril] had a Urinmenge (1 mg/kg oral in Tylose) of 760±185 µ1/100g.5h.
`NS(=O)(=O)c1cc(C(=O)O)cc(N2CCCC2)c1Oc1ccccc1` [B, Piretanid]: the Urinmenge reads like this: (1 mg/kg oral in Tylose) 900±180 µ1/100g.5h; (2 mg/kg oral in Tylose) 1470±140 µ1/100g.5h; (16 mg/kg oral in Tylose) 3520±405 µ1/100g.5h.
